Reference: patent publication EP0497852B1, “BICYCLO-IMIDAZOLES, PROCESS FOR PRODUCING THEM AND DRUGS CONTAINING THEM” (BOEHRINGER MANNHEIM GMBH, priority 1989, dated 1991)

Test system: Erythrozyten-Aggregation
Assay: Erythrocyte aggregation in human blood, Mini-Erythrozyten-Aggregometer (Myrenne)
Type: cell-based, Humanblut gesunder Spender
Details: 10⁻⁵ M, haematocrit 45 %, difference between control baseline and substance solution, two experiments, different donors, index dimensionless
Text: Die Bestimmung der Erythrozyten-Aggregation als Parameter für die Hämorheologie erfolgte mit dem Mini-Erythrozyten-Aggregometer der Fa. Myrenne, Roetgen¹). Als Maß gibt dieses Gerät einen dimensionslosen Index an, der mit steigender Aggregationstendenz zunimmt.
Die Untersuchungen wurden mit dem Humanblut gesunder Spender durchgeführt. Das auf einen Haematokrit von 45 % eingestellte Blut wurde mit der Kontrollösung oder den Substanzlösungen inkubiert. Anschließend wurde die Erythrozyten-Aggregation gemessen. Jede Substanz wurde bei einer Konzentration von 10⁻⁵ M untersucht. Pro Substanz wurden zwei Versuche mit dem Blut verschiedener Spender durchgeführt. Es wurde die Differenz der Aggregationsindices zwischen dem Ausgangswert der Kontrollösung und den Werten der Substanzlösung errechnet. Diese Werte sind in der folgenden Tabelle aufgelistet.

## CCN1C(=O)C(C)(C)c2cc(-c3c[nH]c(-c4ccc(F)cc4)n3)ccc21 [Beispiel 5, 1,3-Dihydro-3,3-dimethyl-1-ethyl-5-[2-(4-fluorphenyl)-4(1H)-imidazolyl]-(2H)-indol-2-on]
  Differenz der Erythrozytenaggregationsindices (E₂-E₁): -8.7

## CC1(C)C(=O)Nc2ccc(-c3c[nH]c(-c4ccc(Cl)cc4)n3)cc21 [Beispiel 6, 1,3-Dihydro-3,3-dimethyl-5-[2-(4-chlorphenyl)-4(1H)-imidazolyl]-(2H)-indol-2-on]
  Differenz der Erythrozytenaggregationsindices (E₂-E₁): -8.2

## CC1(C)CC(=O)Nc2ccc(-c3c[nH]c(-c4ccccc4)n3)cc21 [Beispiel 14, 3,4-Dihydro-4,4-dimethyl-6-[2-phenyl-4(1H)-imidazolyl]-2(1H)-chinolinon]
  Differenz der Erythrozytenaggregationsindices (E₂-E₁): -7.2

## CN1C(=O)C(C)(C)c2cc(-c3c[nH]c(-c4ccccc4)n3)ccc21 [Beispiel 17, 1,3-Dihydro-1,3,3-trimethyl-5-[2-phenyl-4(1H)-imidazolyl]-(2H)-indol-2-on]
  Differenz der Erythrozytenaggregationsindices (E₂-E₁): -8.6
